The source of these data is patent US20170014391A1, “SGK1 INHIBITORS FOR TREATMENT OF PROSTATE CANCER” (Sloan-Kettering Institute for Cancer Research, priority 2013, published 2017).

Where “and” joins values, the source holds several entries; their conditions need not be identical. Identical values can stand only once.

Series [1] deals with AR target gene expression. Briefly: AR target gene expression with GR antagonists. The series is classed as cell-based.
For the next series, the system named is LREX′ cells. Briefly: Expression profiling (global transcriptome) of LREX′ cells. The series is classed as cell-based. The note with it: enzalutamide 10 micromolar.
The next series concerns GR mRNA (NR3C1). The series is described as follows: GR mRNA (RT-qPCR) in LNCaP/AR xenograft tumors, validation cohort. The series is classed as in vivo, mice. Set-up: key: expression relative to beta-actin or GAPDH. The note with it: individual tumor with acquired resistance to the drug (10 mg/kg), relative expression. The text has this:
(§1) RNA was extracted from cell lines using the RNeasy kit (Qiagen). Frozen tumors were lysed with lysing matrix A using the Fast-Prep24 tissue homogenizer system (MP BIOMEDICALS) in Trizol (Invitrogen) followed by clean up with RNeasy (Qiagen). cDNA was generated with the High Capacity cDNA Reverse Transcription Kit (Applied Biosystems.) Data was quantified relative to either beta Actin or GAPDH expression and relative expression was generally plotted. Primers for ACTB (PPH00073E), NDRG1(PPH02202B), NR3C1(PPH02652A), and SGK1(PPH00387E), STK39 (PPH14239B), GRB10 (PPH05866B), TIPARP (PPH07883A), PMEPA1 (PPH01013B) were purchased from SA Biosciences. Other qPCR primers are as follows: […]

The subject of series [2] is VCaP cells. Briefly: VCaP in vitro growth assay (CellTiter-Glo). Type of series: cell-based. The note with it: Enz 10 micromolar, standard culture conditions. The procedure: Enz=10 micromolar, Dex=100 nM, CMP 15=1 micromolar. A. Western blot analysis of prostate cancer cell lines. B, C and D. Cell viability assessed by CellTiter-Glo (Promega) assay and normalized to day 1 value after indicated treatments+/−s.e.m. E. Confirmation of GR knock-down by western blot after infection with GR targeting shRNA. F. Apoptosis as assessed by cPARP western blot after 3 days of indicated treatment. G. A suite of AR targets relevant to VCaP was defined (see methods) and normalized expression of each gene after 24 hours of indicated drug treatments is depicted by heat map and ranked by degree of induction with Dex. H. Expression of the top two genes from […]. (KLK2 and FKBP5) after 24 hours of indicated treatments+/−s.e.m. See also FIG. S6.
Viability is plotted normalized to day 1.

The subject of series [3] is GR. Briefly: Bone marrow evaluation: GR IHC of tumor cells in patients receiving enzalutamide. Type of series: in vivo. The note with it: bone metastases, enzalutamide 160 mg daily. The protocol: Patients were treated with enzalutamide 160 mg daily. Bone marrow biopsy and aspirate (˜5 mL) were performed before treatment and at week 8. The bone marrow specimens were obtained by transiliac biopsy, and samples were processed according to standard MD Anderson Cancer Center decalcification and fixation procedures. After pathologic evaluation, samples were stored in the MD Anderson Cancer Center Prostate Cancer Tissue Bank. Imaging studies were performed at the time of suspected prostate cancer progression or at the treating physician's discretion, but generally not prior to 12 weeks post-treatment initiation. […] Retrospective analysis for GR was performed by IHC on […] formalin-fixed, paraffin-embedded bone marrow biopsy sections with anti-GR at a dilution of 1:200 (BD Transduction Laboratories #611227). A Dako autostainer and standard 3,3-diaminobenzidine were used. GR expression was assessed in a blinded fashion by two pathologists scoring at least 100 tumor cells per specimen. Plotted are either data from all specimens or only from patients with usable material at baseline and 8 weeks.

For another series, the system named is LnCaP/AR and sub-lines. The series is described as follows: In vitro growth by cell counting (Vi-cell). The note with it: 1 micromolar, FIG. S7B.
The conditions of series [4]: Tran et al., 2009; cited from earlier work.
Series [5] has as its system LNCaP/AR xenograft tumors. The note with it: previously shown (Clegg et al., 2012; Tran et al., 2009); cited from earlier work.
The test system of the next series is PSA. Briefly: Maximal PSA decline in patients receiving enzalutamide. Type of series: in vivo. The note with it: enzalutamide 160 mg daily.
Series [6] relates to AR target genes in LREX′ cell line. Briefly: Expression of AR target genes in LREX′ cell line (RT-qPCR). The series is classed as cell-based.
Source text: A. Normalized expression array signal (Illumina HT-12) of a suite of 74 AR target genes in control (n=10), 4 day (n=8), and LREX′ (n=8, right) xenograft tumors. Genes are ranked by degree of restoration of expression in resistant tissue ((Res-4 day)/(Control-4 day)). All resistant tissues were continued on anti-androgen treatment through time of harvest. B. Fractional restoration values of each of the 74 AR targets in LREX′ xenografts (n=8) or resistant tissues from the validation cohort (n=12, see also FIG. S3). C. GR mRNA in resistant tissues used in B. D. Expression of AR target genes in the LREX′ cell line in steroid depleted media after 8 hours of treatment with the indicated agonists, in vitro. Enzalutamide=10 micromolar, V=Vehicle.+/−s.e.m. See also FIGS. S3, S4.
A. LnCaP/AR cells engineered to express GFP or GR were treated with indicated drugs. […] D. Control or AR siRNA knock-down in LREX′ followed by treatment with indicated drugs. […] Cells were treated in charcoal stripped media. Expression determined by RT-qPCR+/−s.e.m.
LREX′ cells were derived from a single enzalutamide resistant tumor that was harvested, disaggregated with collagenase treatment, and then maintained in RPMI supplemented with 20% FBS and 1 μM enzalutamide. Cells were initially grown on collagen-coated flasks until confluent and then were maintained on standard tissue culture dishes. CS1 were similarly derived from vehicle treated tumors and maintained in standard LNCaP/AR media. LNCaP/AR and LREX′ cells were cultured in phenol-red free RPMI with 10% charcoal-stripped FBS prior to drug treatments.
as §1
(In general: Real-time PCR tracks product formation cycle by cycle.)

Series [7] has as its system VCaP cells. The note with it: Tran et al., 2009; cited from earlier work.
Series [8] has as its system GR protein in LREX′ cells. The series is described as follows: Intracellular GR flow cytometric analysis of LREX′ cells. On the technique in general: A flow cytometer gives signals particle by particle.
Experimental: (§3) E. Intracellular GR flow cytometric analysis of indicated cells at indicated times points.
(§4) Cells were re-suspended in Fixation/Permeabilization working solution (eBioscience; San Diego, Calif., USA) at a concentration of 1-2×10^6 cells/ml for 30 minutes at room temperature. The cells were subsequently stained with primary antibodies, Rabbit (DA1E) mAb IgG XP® Isotype Control, androgen receptor (D6F11) XP® Rabbit mAb, or glucocorticoid receptor (D6H2L) XP® Rabbit mAb (Cell Signaling Technology; Danvers, Mass., USA) for 20 minutes at room temperature. The cells were washed twice with Flow Cytometry Staining Buffer (eBioscience; San Diego, Calif., USA), and then stained with secondary antibody, Allophycocyanin-AffiniPure F(ab′)2 Fragment Donkey Anti-Rabbit IgG (Jackson ImmunoResearch Laboratories, Inc.; Westgrove, Pa., USA) for 20 minutes at room temperature. Following two more washes, the cells were re-suspended in Flow Cytometry Staining Buffer and analyzed by flow cytometry on a LSRII (BD Biosciences; San Jose, Calif., USA) using FlowJo software (Tree Star, Ashland, Oreg., USA). For GR staining, cells were maintained in their standard media and treated with dexamethasone for 20 minutes prior to harvest to fully expose antigen.
The subject of series [9] is GR mRNA. Briefly: GR mRNA in LREX′ xenografts after enzalutamide discontinuation. The series is classed as in vivo, mice. The note with it: 8 days after discontinuation, after 7 weeks of 10 mg/kg.
Source text: (§2) A. GR mRNA in LREX′ xenografts. […] . […] C. […] AUC=area under curve. […] . […] See also FIG. S7.
as §1

A further series has as its system DU145 and PC3 cells. The note with it: AR-negative cells; cited from earlier work.
Series [10] concerns GR mRNA. Briefly: GR mRNA in LREX′ cell line in vitro. Type of series: cell-based.
Source text: as §2, §1

Series [11] concerns GR protein in CS1 or LnCaP/AR. Briefly: Intracellular GR flow cytometric analysis of CS1 or LnCaP/AR cells. The note with it: enzalutamide 1 micromolar, 4 week experiment.
Experimental: as §3, §4
The conditions of series [12]: in vivo; cited from earlier work.
For series [13], the target named is GR (Homo sapiens, UniProt P04150). The note with it: patients with Cushing syndrome; cited from earlier work.
GR (Homo sapiens, UniProt P04150), sequence (P04150 whole entry): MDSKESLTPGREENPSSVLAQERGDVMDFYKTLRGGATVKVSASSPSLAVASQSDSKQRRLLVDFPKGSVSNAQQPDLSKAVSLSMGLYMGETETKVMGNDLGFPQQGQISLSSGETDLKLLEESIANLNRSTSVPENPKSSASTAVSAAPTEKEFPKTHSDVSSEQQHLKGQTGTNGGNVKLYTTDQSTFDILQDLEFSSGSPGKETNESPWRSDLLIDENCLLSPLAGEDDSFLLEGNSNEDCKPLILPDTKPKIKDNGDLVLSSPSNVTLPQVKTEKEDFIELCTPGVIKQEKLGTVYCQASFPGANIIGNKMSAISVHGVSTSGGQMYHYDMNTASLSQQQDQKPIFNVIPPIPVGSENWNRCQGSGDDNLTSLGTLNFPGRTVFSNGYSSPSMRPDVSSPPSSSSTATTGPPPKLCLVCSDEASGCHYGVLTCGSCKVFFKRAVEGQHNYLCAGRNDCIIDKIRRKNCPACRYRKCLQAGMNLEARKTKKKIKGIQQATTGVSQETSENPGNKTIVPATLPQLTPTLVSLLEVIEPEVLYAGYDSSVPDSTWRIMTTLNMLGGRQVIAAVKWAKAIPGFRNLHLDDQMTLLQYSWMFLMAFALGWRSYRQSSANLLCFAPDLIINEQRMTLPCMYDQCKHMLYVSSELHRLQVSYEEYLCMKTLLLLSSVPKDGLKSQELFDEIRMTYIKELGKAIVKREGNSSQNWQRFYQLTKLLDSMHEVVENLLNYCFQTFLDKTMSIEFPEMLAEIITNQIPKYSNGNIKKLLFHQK
Series [14] concerns LNCaP/AR xenograft tumors. The series is described as follows: LNCaP/AR xenografts in castrate mice, long-term antiandrogen treatment (pilot cohort). Type of series: in vivo. The note with it: for Mean Tumor Volume (mm^3): Day 0: 10 mg/kg oral gavage 5 days a week, start of treatment; for % Regression: D28 Mean: 10 mg/kg, day 28; for Mean Tumor Volume (mm^3) at harvest: harvest after progression on continued treatment; for Day of Harvest: Mean: tumors harvested after progression.

Where [15] appears, read: enzalutamide 10 micromolar, 8 hours.
[16] abbreviates: LREX′^off, enzalutamide 1 micromolar.
Setting [17] is: steroid depleted media, 8 hours.

Experimental for LnCaP/AR and sub-lines: B. Relative cell numbers determined by cell counting (Vi-cell) of indicated cells with vehicle or 1 micro-molar enzalutamide treatment.
LnCaP/AR and sub-lines: Equivalent numbers of cells were plated and then harvested and counted in triplicate at indicated time points using the Beckman Coulter Vi-Cell XR. Cells were passaged at each time point and identical numbers of cells re-plated. Fold increase in cell numbers were determined for each time interval.

Regarding `CC#C[C@]1(O)CCC2C3CCC4=CC(=O)CCC4=C3[C@@H](c3ccc4c(c3)OCO4)C[C@@]21C` (stereo partly drawn) [ORG34517], the “effect on AR target gene expression” value in series [1] is given as “activate”.
Regarding `CNC(=O)c1ccc(N2C(=S)N(c3ccc(C#N)c(C(F)(F)F)c3)C(=O)C2(C)C)cc1F` [enzalutamide], the “effect on Dex-induced gene expression (heatmap)” value in the series with LREX′ cells is “not impacted”. The “GR mRNA Expression” value in the series with GR mRNA (NR3C1) (listed as Enz) is 29.8 and 24.2 and 24.0 and 14.3 and 0.5 and 127.7 and 53.0. In addition, the “growth of VCaP cells” value in the series on VCaP cells [2] is “inhibited growth”. In the series with GR [3], the “mean percentage of GR positive cells at 8 weeks, poor responders” value was determined as 29% and the “percentage of GR-positive cells at 8 weeks, good responders” value is given as 10%. Further, the “antiproliferative effect in vitro” value in the series on LnCaP/AR and sub-lines is “weak antiproliferative effect”. In [4], the half-life in mice entry is given as “prolonged half-life”. In series [5], the “LNCaP/AR xenograft tumors during the first 28 days of treatment” value is recorded as “regress”. For the same compound, in the series on PSA (benefit for greater than 6 months), the “good responders with maximal PSA decline greater than 50%” value was 11 of 13. For the same compound, the “poor responders with maximal PSA decline greater than 50%” value in the series on PSA (discontinued earlier than 6 months) is reported as 1 of 14. Besides, in series [6] (enzalutamide 10 micromolar), the “effect on Dex activity at AR target genes” value is recorded as “did not notably affect”. The “effect on DHT regulation of the 8 genes” value in series [6] (setting [15]) was “blocked”. The “sensitivity of VCaP cells in vitro” value with VCaP cells [7] is “enzalutamide-sensitive”. Moreover, in [8] (LREX′ after enzalutamide withdrawal), the “half-life of exponential decay in median GR protein signal upon withdrawal” value was determined as 182 h. In series [8] (setting [16]), the “GR expression after continued drug exposure for 7 weeks” value was “clear shift in GR expression in essentially all cells” and the “doubling time of GR expression on re-exposure” value is 6.8 days. Moreover, in [8] (followed to 17 weeks), the “time to plateau in loss of GR expression upon withdrawal” value is recorded as no more than 7 weeks. For the same compound, the “drop of GR mRNA levels after treatment discontinuation” value with GR mRNA [9] is roughly 5 fold. Besides, in the series with DU145 and PC3 cells, the “sensitivity of DU145 and PC3 cells” value is “resistant”. For the same compound, the “GR mRNA levels after withdrawal in vitro” value in the series with GR mRNA [10] (LREX′ passaged without enzalutamide, 23 days) was “dropped as early as 1 day after discontinuation and continued to decline throughout the 23 days”. The “effect of co-treatment on DHT reduction of GR mRNA” value with GR mRNA [10] (setting [15]) is “reversed”. Besides, the “median GR expression intensity” value in [11] (cells not previously exposed) was “no change”. Moreover, the “area under the GR staining population” value in series [11] was “did increase”.
With `CC(C)C(=O)Nc1ccc([N+](=O)[O-])c(C(F)(F)F)c1` [flutamide], in series [12], the “Distribution: Protein-binding” value is “Distribution: Protein-binding: 90%” and the Excretion entry is recorded as “Urine, faeces (small amounts)”.
For the compound `CC#C[C@]1(O)CC[C@H]2[C@@H]3CCC4=CC(=O)CCC4=C3[C@@H](c3ccc(N(C)C)cc3)C[C@@]21C` [mefipristone], the “effect on AR target gene expression” value in series [1] is on record as “activate”. The “risk-benefit of GR inhibition in humans” value on GR [13] is reported as “acceptable risk-benefit profile”.
As to `CNC(=O)c1ccc(N2C(=S)N(c3cnc(C#N)c(C(F)(F)F)c3)C(=O)C23CCC3)cc1F` [ARN-509], the “GR mRNA Expression” value in the series on GR mRNA (NR3C1) (listed as ARN) was 47.4 and 41.6 and 30.2 and 14.5 and 11.4 and 1.4 and 0.8 and 172.1 and 103.8. Besides, in [5], the “LNCaP/AR xenograft tumors during the first 28 days of treatment” value is “regress”. Moreover, in series [14], the “Mean Tumor Volume (mm^3): Day 0” value was 341 mm^3, the “% Regression: D28 Mean” value stood at 71%, the “Mean Tumor Volume (mm^3) at harvest” value is listed as 337 mm^3 and the “Day of Harvest: Mean” value is listed as “D145 days”.
Take `CNC(=O)c1ccc(N2C(=S)N(c3ccc(C#N)c(C(F)(F)F)c3)C(=O)C23CCC3)cc1F` [RD162]: the “LNCaP/AR xenograft tumors during the first 28 days of treatment” value in series [5] is on record as “regress”. In addition, in series [14], the “Mean Tumor Volume (mm^3): Day 0” value came to 379 mm^3, the “% Regression: D28 Mean” value was 80%, the “Mean Tumor Volume (mm^3) at harvest” value stood at 554 mm^3 and the “Day of Harvest: Mean” value is “D173 days”.
For `C[C@]12CCC(=O)C[C@@H]1CC[C@@H]1[C@@H]2CC[C@]2(C)[C@@H](O)CC[C@@H]12` [DHT, dihydrotestosterone], in [6] (setting [17]), the “expression of 7 AR targets and PSA (8 genes)” value was “regulated”; the “expression of KLK3 (PSA)” value is on record as “comparably induced”. In addition, in the series on GR mRNA [10] (charcoal stripped media, 8 hours), the “GR mRNA levels after DHT exposure” value is recorded as “reduced”.
